This is an account of results in patent US6984510B2, “Vitamin B6-phosphate phosphatase” (DSM IP Assets B.V., priority 2001, dated 2006).

The target in the first assay is T1, VB6PP (Sinorhizobium meliloti, UniProt A7BK78). Kind of assay: substrate specificity of the enzyme (phosphate release, malachite green method). It is filed as biochemical.
T1 sequence (A7BK78 entry or part of it): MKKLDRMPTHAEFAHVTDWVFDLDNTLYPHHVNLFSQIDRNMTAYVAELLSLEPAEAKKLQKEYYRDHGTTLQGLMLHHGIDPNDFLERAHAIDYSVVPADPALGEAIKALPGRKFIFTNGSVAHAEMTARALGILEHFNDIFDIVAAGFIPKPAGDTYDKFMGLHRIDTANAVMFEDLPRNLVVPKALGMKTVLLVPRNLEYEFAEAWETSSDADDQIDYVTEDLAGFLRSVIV
Settings: not given
How it is done: After incubation for 30 minutes, the reaction mixture was cooled down into an ice bath. Activity was determined in the following two ways. […] One unit of the enzyme activity was defined as-the amount of enzyme synthesizing 1 μmole of vitamin B6 for 30 minutes in the assay system described above.
With `Cc1ncc(COP(=O)(O)O)c(CN)c1O` [PMP, pyridoxamine 5′-phosphate], the Substrate specificity result is listed as “active”.
For the molecule `Cc1ncc(COP(=O)(O)O)c(C=O)c1O` [PLP, pyridoxal 5′-phosphate], the Substrate specificity entry is given as “active”.

Still in this assay, the particulars now being: substrate 160 μM final concentration; PNP = 100.
As to `Nc1ncnc2c1ncn2[C@@H]1O[C@H](COP(=O)(O)O)[C@@H](O)[C@H]1O` [adenosine monophosphate], the “Relative activity (%)” value was determined as 6%.
As to `Nc1ncnc2c1ncn2[C@@H]1O[C@H](COP(=O)(O)OP(=O)(O)O)[C@@H](O)[C@H]1O` [adenosine diphosphate], the “Relative activity (%)” value is 0%.
On to `Nc1ncnc2c1ncn2[C@@H]1O[C@H](COP(=O)(O)OP(=O)(O)OP(=O)(O)O)[C@@H](O)[C@H]1O` [adenosine triphosphate], for which the “Relative activity (%)” value came to 0%.
Same read-out and setting: to `O=C(O)C(O)COP(=O)(O)O` (stereo not drawn) [D(−)3-phosphoglyceric acid] belongs 0%; to `O=[N+]([O-])c1ccc(OP(=O)(O)O)cc1` [p-nitrophenyl phosphate], 29%.
Same read-out and setting: to `O=C[C@H](O)[C@@H](O)[C@H](O)[C@H](O)COP(=O)(O)O` [D-glucose 6-phosphate] belongs 0%.
On the same count and under the same terms, in the case of `O=C(O)COP(=O)(O)O` [2-phosphoglycolic acid] it was 0%; in that of `Cc1ncc(COP(=O)(O)O)c(CN)c1O` [PMP, pyridoxamine 5′-phosphate], 0.1%.
Take `Cc1ncc(COP(=O)(O)O)c(C=O)c1O` [PLP, pyridoxal 5′-phosphate]: the “Relative activity (%)” value was 40%.
Same read-out and setting: to `N[C@@H](COP(=O)(O)O)C(=O)O` [O-phospho-L-serine] belongs 0%; to `O=P(O)(O)Oc1cccc2ccccc12` [1-naphthyl phosphate], 9%.

The target of the next assay is T1, VB6PP. The experiment in a line: co-factor requirement of the enzyme to convert VB6P to vitamin B6 (standard enzyme assay). It is filed as biochemical. Also on record: Relative activity (%): concentration or dose not given beside the values.
Settings: not given
For the molecule `[Cl-].[Cl-].[Co+2]` [CoCl2], the “Relative activity (%)” value is given as 65% and the “co-factor for conversion of VB6P to vitamin B6” value is reported as “could serve as a co-factor”.

The same assay, now with this note: divalent metal ion.
As to `[Cl-].[Cl-].[Mg+2]` [MgCl2], the “co-factor for conversion of VB6P to vitamin B6” value is “could serve as a co-factor”.
Still for that read-out and setting: to `[Cl][Sn][Cl]` [SnCl2] belongs “could serve as a co-factor”; to `[Cl][Ni][Cl]` [NiCl2], “could serve as a co-factor”.
Same read-out and setting: to `[Cl][Mn][Cl]` [MnCl2] belongs “could serve as a co-factor”.

Staying with this assay, now noted: metal salt as co-factor; MnCl2 = 100.
On to `[Cl-].[Cl-].[Mg+2]` [MgCl2], for which the “Relative activity (%)” value is recorded as 88%.
Same read-out and setting: to `[Cl][Sn][Cl]` [SnCl2] belongs 11%.
Consider `[Cl][Ni][Cl]` [NiCl2], for which the “Relative activity (%)” value was 7%.
The same measure, in the same setting: in the case of `[Cl][Mn][Cl]` [MnCl2] it was 100%.
